Assay results taken from US20240075050A1, “Methods and Compositions for Treating Leucine Rich Repeat Kinase 2 (LRRK2)-Associated Disorder or Condition” (University of Connecticut, priority 2022, published 2024).

Key:
[1] = system: mouse primary cortical neurons; assay: Primary neuronal viability assay, LRRK2-induced neuronal toxicity; format: cell-based; details: 1 mM AICAr
Description: Primary neuronal cultures and viability assay. Primary cortical neuronal cultures were prepared from embryonic day 15-16 CD1 fetal mice (Charles River)^1. Briefly, cortices were dissected and dissociated by Trypsin (Invitrogen). The cells were seeded into 24-well plates pre-coated with poly-L-ornithine (Sigma) and were maintained in Neurobasal medium (Gibco) supplemented with B27 supplement (Gibco) and L-glutamine. The glial cells were inhibited by adding 5-fluoro-20-deoxyuridine (5F2DU, 30 μM, Sigma) at days in vitro (DIV) 4. To assess ATIC in LRRK2-induced toxicity, neurons were first infected with lentiviruses of ATIC-shRNA #6 or control-shRNA at DIV 3, and MYC-LRRK2, […] were co-transfected at a plasmid ratio of 10:1 into neurons at DIV 5 using Lipofectamine 2000 reagent (Invitrogen). […] Fixed cells are washed with PBS, permeabilized and blocked for 1 hour with PBS containing 5% goat serum and 0.3% Triton X-100, then detected with rabbit anti-GFP antibody followed by AlexaFluor-488 anti-rabbit IgG antibody. […] For each independent experiment, the percent viability of GFP-positive neurons (n>100) was determined and normalized to the control neurons transfected with pEGFP-N1 plus pcDNA3.1 empty vector.

[2] = system: LRRK2; assay: LRRK2 levels in mouse striatal tissue after intracranial AICAr via osmotic pumps, Western blot; format: in vivo
Description: Saline injections were performed as controls.
Stereotaxic intracranial injection. Three days before survival surgery, osmotic pumps (ALZET, 1004) were filled with saline, 1 mg/ml or 30 mg/ml AICAr in saline, assembled with brain infusion kits (ALZET, Brain Infusion Kit 2), and incubated in saline at 37° C. 3-month-old mice were anesthetized by isoflurane gas supplemented with 0.5 L/min oxygen. A ˜1.5 cm incision was made midline on the scalp. For mouse striatum injection, one hole was drilled at the following coordinates: anterioposterior=+0.5 mm from bregma; lateral=−2.0 mm from bregma; dorsoventral=−3.5 mm. For mouse substantia nigra pars compacta (SNpc) injection, one hole was drilled at the following coordinates: anterioposterior=−3.2 mm from bregma; lateral=−1.2 mm from bregma; dorsoventral=−4.2 mm. 1 ul LPS (5 ug) or PBS was injected at a rate of 0.2 ul/min using a Hamilton syringe with a 26-gauge blunt needle. After injection, the needle was in place for 5 minutes to minimize backflow. A subcutaneous pocket was made on the animal's back to hold the osmotic pump. The 28-gauge needle from infusion cannulae connected to the osmotic pump with a vinyl catheter tube was inserted into the same hole and then the cannulae was secured to the skull with Loctite 454 (ALZET). The wound was closed with monofilament suture. […]

[3] = system: CD68; assay: LPS-induced neuroinflammation in mice, CD68 levels; format: in vivo, mouse; details: 21 days; for LPS-induced CD68 levels in SNpc: AICAr 2.4 μg/day/animal, immunostaining
Description: FIGS. 9A-9F depict that AICAr rescues LPS-induced DA neurodegeneration and inflammation in mice, which acts through LRRK2. FIG. 9A depicts representative images of DAneuron staining. WT and LRRK-KO mice were injected with 1 ul LPS (5 ug/animal) or phosphate buffered saline (PBS) into the substantia nigra pars compacta (SNpc) and administrated with AICAr (2.4 μg/day/animal) or saline to same stereotaxic coordinates using osmotic pumps. After 21 days of injection, DA neurons were stained by anti-tyrosine hydroxylase (TH) antibody. Scale bars, […]. FIG. 9B depicts quantification of TH positive neurons in substantia nigra pars compacta (SNpc) using an unbiased stereological method with stereo investigator software from 7-8 animals per group. FIG. 9C depicts quantification of Niss1-positive neurons in SNpc using an unbiased stereological method with stereo investigator software from 7-8 animals per group. FIG. 9D depicts the CD68 levels in SNpc tissues near the needle sites analyzed by immunostaining. Scale bars, 100 μm. FIG. 9E depicts the CD68 levels in WT and LRRK-KO mice injected with 1 μl LPS (5 μg/animal) or PBS into striatum followed by administration of AICAr (2.4 μg/day/animal) or saline to same stereotaxic coordinates using osmotic pumps. After 21 days of injection, LRRK2 and CD68 expression in striatal tissues near the needle sites was analyzed by Western blot. FIG. 9F depicts quantification of images from (FIG. 9E) using ImageJ software, n=3 animals per group. Data information: Data are mean±SEM. ***p<0.001, ****p<0.0001 by one-way ANOVA followed by a Tukey's post hoc test. ns: not statistically significant.
Stereotaxic intracranial injection. […]
Immunohistochemistry. […] After antigen retrieval with 10 mM sodium citrate (pH 6.0) and 0.05% Tween-20 at 37° C. for 30 minutes, brain sections were washed in PBS for three times, permeabilized with 0.3% Triton X-100 in PBS, blocked with 10% goat serum in PBS, incubated with anti-tyrosine hydroxylase (TH) antibody overnight at 4° C., and then detected with Biotin-SP goat anti-rabbit IgG antibody at room temperature for 2 hours. […]

With `NC(=O)c1ncn([C@@H]2O[C@H](CO)[C@@H](O)[C@H]2O)c1N` [AICAr, 5-aminoimidazole-4-carboxamide riboside] the “LRRK2 GS mutant induced neuronal toxicity” value ([1]; mouse primary neurons transfected with MYC-LRRK2 G2019S and eGFP) was “significantly rescued”, the “overexpression of LRRK2-WT induced neuronal toxicity” value ([1]; mouse primary neurons transfected with MYC-LRRK2 WT and eGFP) was “significantly rescued” and the “LRRK2 levels in striatal tissues” value ([2]; WT mice, LPS model, AICAr 2.4 μg/day/animal into striatum, 21 days, Western blot) was “significant decrease”. The “LRRK2 levels in striatal tissue near the injection sites” value ([2]; male and female mice, striatum, osmotic minipumps, 72 ug/animal/day, 1 day after injection) was “dramatically decreased”, the “LPS-induced CD68 levels in SNpc” value ([3]; LRRK2 KO mice) was “did not significantly rescue” and the “CD68 levels stimulated by LPS in striatum” value ([3]; WT mice, AICAr 2.4 μg/day/animal into striatum, Western blot) was “significantly reduced”. The “LPS-induced CD68 levels in SNpc” value ([3]; WT mice) was “significantly reduced”.
